Experimental data taken from patent publication US20100173888A1 (Pfizer Inc, priority 2008, published 2010).

target: human recombinant H-PGDS (Homo sapiens, UniProt O60760); test: Slightly modified fluorescence intensity h-PGDS TBA enzyme assay (1:40,000 enzyme, 40 second reaction, 1/2 log dilutions, top concentration typically 10 μM); format: biochemical; settings: slightly modified assay: 1:40,000 human recombinant H-PGDS
Procedure: Fluoresecence Intensity h-PGDSTBA Enzyme Assay
Prostaglandin D Synthase (PGDS) converts the substrate prostaglandin H2 (PGH2) to prostaglandin D2. The depletion of PGH2 was measured via an Fe(II) reduction of the remaining PGH2 to malondialdehyde (MDA) and 12-HHT. The enzyme assay is based on the quantitative formation of a fluorescent complex from the non-fluorescent compounds MDA and 2-thiobarbituric acid (TBA), substantially as described in U.S. patent application publication US-2004/152148 by Lombardt.
Examples 6-8, 11a-16, 23, 26-47, 49-103, 105-113, 115-118 and 126-128 were tested in a slightly modified assay: The enzyme assay (30 μls during biological process) contained 100 mM Trizma pH 8.0, 100 μM MgCl2, 0.1 mg/ml IgG Rabbit serum, 5.0 μM PGH2 (Cayman; ethanol solution, #17020), 2.5 mM L-Glutathione (Sigma; reduced form #G4251), 1:40,000 human recombinant H-PGDS (from 1 mg/ml), 0.5% DMSO and inhibitor (varying concentration). 3 μls of diluted inhibitor (dissolved in DMSO) was plated into a 384-well assay plate followed by a 24 μl addition of an enzyme solution containing h-PGDS, Trizma, MgCl2, IgG and L-Glutathione. After pre-incubation of inhibitor and enzyme solution for 10 minutes at room temperature, the reaction was initiated with a 3 μl addition of substrate solution in 10 mM HCl. The reaction was terminated after 40 second by the addition of 3 μl stop buffer containing FeCl2 and citric acid. After addition of 45 μls of TBA plates were heated for one hour in a 70° C. oven. Plates were cooled at room temperature overnight and read on a plate reader the next day with excitation @ 530 nm and emission @ 560 nm. IC50' s of inhibitors were calculated with a 4-parameter fit using 11 inhibitor concentrations in duplicate with ½ log serial dilutions. Controls on each plate included no inhibitor (zero % effect) and an inhibitor 500-fold in excess of its' IC50 (100% effect). The highest inhibitor concentration tested was typically 10 μM.

Sequence of human recombinant H-PGDS (O60760 whole entry): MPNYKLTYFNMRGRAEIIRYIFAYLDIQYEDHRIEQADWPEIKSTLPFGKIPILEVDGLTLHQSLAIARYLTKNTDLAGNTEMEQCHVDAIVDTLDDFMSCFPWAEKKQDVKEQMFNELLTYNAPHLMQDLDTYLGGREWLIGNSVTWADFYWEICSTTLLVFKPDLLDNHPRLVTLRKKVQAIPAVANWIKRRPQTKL

Row | Compound | IC50 [nM]
1 | CC(C)(C)NC(=O)[C@@H]1CCC[C@H](NC(=O)c2ccc(-c3cccc(F)c3)nc2)C1 (relative stereo) [Example 38, N-[cis-3-(tert-Butylcarbamoyl)cyclohexyl]-6-(3-fluorophenyl)nicotinamide] | 8.43
2 | CN(C)C(=O)[C@H]1CCC[C@@H](NC(=O)c2ccc(-c3cccc(F)c3)nc2)C1 (relative stereo) [Example 31, N-[cis-3-(Dimethyicarbamoyl)cyclohexyl]-6-(3-fluorophenyl)nicotinamide] | 10.8
3 | O=C(NC1CCC(c2ncc[nH]2)CC1)c1ccc(-c2cccc(F)c2)nc1 (single isomer, unassigned) [Example 63, 6-(3-Fluorophenyl)-N-[4-(1H-imidazol-2-yl)cyclohexyl]nicotinamide] | 13
4 | O=C(N[C@@H]1CCCC[C@@H]1O)c1ccc(-c2cccc(F)c2)nc1 (relative stereo) [Example 23] | 17.4
5 | N[C@H]1CCN(C(=O)[C@H]2CC[C@@H](NC(=O)c3ccc(-c4cccc(F)c4)nc3)C2)C1 [Example 16, N-[(1R,3S)-3-{[(3S)-3-Aminopyrrolidin-1-yl]carbonyl}cyclopentyl]-6-(3-fluorophenyl)nicotinamide] | 29.1
6 | O=C(NC1CC1)c1ccc(-c2cccc(F)c2)nc1 [Example 6, N-Cyclopropyl-6-(3-fluoro-phenyl)-nicotinamide] | 159
7 | O=C(N[C@H]1CC[C@H](CO)CC1)c1ccc(-c2cccc(F)c2)nc1 [Example 103, 6-(3-Fluorophenyl)-N-[trans-4-(hydroxymethyl)cyclohexyl]nicotinamide] | 1.43
8 | CNCCN(C)C(=O)[C@H]1CC[C@@H](NC(=O)c2ccc(-c3cccc(F)c3)nc2)CC1 [Example 76, 6-(3-Fluorophenyl)-N-(cis-4-{methyl[2-(methylamino)ethyl]carbamoyl}cyclohexyl)nicotinamide] | 31.8
9 | O=C(NC1CCC(N2CCOCC2)CC1)c1ccc(-c2cccc(F)c2)nc1 (single isomer, unassigned) [Example 50, 6-(3-Fluorophenyl)-N-(4-morpholin-4-ylcyclohexyl)nicotinamide] | 5.76
10 | C[C@H]1CNCCN1C(=O)[C@H]1CC[C@H](NC(=O)c2ccc(-c3cccc(F)c3)nc2)CC1 [Example 109, 6-(3-Fluorophenyl)-N-(trans-4-{[(2S)-2-methylpiperazin-1-yl]carbonyl}cyclohexyl)nicotinamide] | 16.7
11 | O=C(N[C@@H]1CC[C@H](C(=O)N2CC[C@H](O)C2)C1)c1ccc(-c2cccc(F)c2)nc1 [Example 15, 6-(3-Fluorophenyl)-N-[(1R,3S)-3-{[(3S)-3-hydroxypyrrolidin-1-yl]carbonyl}cyclopentyl]nicotinamide] | 10.3
12 | CN1CCN(C[C@H]2CC[C@@H](NC(=O)c3ccc(-c4cccc(F)c4)nc3)CC2)CC1 [Example 81, 6-(3-Fluorophenyl)-N-{cis-4-[(4-methylpiperazin-1-yl)methyl]cyclohexyl}nicotinamide] | 53.4
13 | O=C(N[C@H]1CC[C@@H](O)CC1)c1ccc(-c2cccc(F)c2)nc1 [Example 65, 6-(3-Fluorophenyl)-N-(cis-4-hydroxycyclohexyl)nicotinamide] | 15.7
14 | O=C(N[C@H]1CCC[C@@H](C(=O)N2CCOCC2)C1)c1ccc(-c2cccc(F)c2)nc1 (relative stereo) [Example 36, 6-(3-Fluorophenyl)-N-[cis-3-(morpholin-4-ylcarbonyl)cyclohexyl]nicotinamide] | 8.34
15 | N[C@H]1CCCC[C@H]1NC(=O)[C@@H]1CCC[C@H](NC(=O)c2ccc(-c3cccc(F)c3)nc2)C1 (mixture of isomers) [Example 64L, N-[(1S,3R)-3-{[cis-2-aminocyclohexyl]carbamoyl}cyclohexyl]-6-(3-fluorophenyl)nicotinamide] | 255
16 | O=C(N[C@@H]1CC[C@H](C(=O)N2CCC(O)CC2)C1)c1ccc(-c2cccc(F)c2)nc1 [Example 14, 6-(3-Fluorophenyl)-N-{(1R,3S)-3-[(4-hydroxypiperidin-1-yl)carbonyl]cyclopentyl}nicotinamide] | 7.48
17 | CN1CCN(C(=O)[C@@H]2CCC[C@H](NC(=O)c3ccc(-c4cccc(F)c4)nc3)C2)CC1 (relative stereo) [Example 35, 6-(3-Fluorophenyl)-N-{cis-3-[(4-methylpiperazin-1-yl)carbonyl]cyclohexyl}nicotinamide] | 8.29
18 | O=C(N[C@H]1CCC[C@@H](C(=O)N2CCNCC2)C1)c1ccc(-c2cccc(F)c2)nc1 (relative stereo) [Example 42, 6-(3-Fluorophenyl)-N-[cis-3-(piperazin-1-ylcarbonyl)cyclohexyl]nicotinamide] | 10.2
19 | CN(C)C[C@H]1CC[C@@H](NC(=O)c2ccc(-c3cccc(F)c3)nc2)CC1 [Example 67, N-{cis-4-[(Dimethylamino)methyl]cyclohexyl}-6-(3-fluorophenyl)nicotinamide] | 118
20 | CC(C)c1nccn1[C@H]1CC[C@H](NC(=O)c2ccc(-c3cccc(F)c3)nc2)CC1 [Example 106, 6-(3-Fluorophenyl)-N-[trans-4-(2-isopropyl-1H-imidazol-1-yl)cyclohexyl]nicotinamide] | 14.2
21 | CO[C@H]1CC[C@H](NC(=O)c2ccc(-c3cccc(F)c3)nc2)CC1 [Example 83, 6-(3-Fluorophenyl)-N-(trans-4-methoxycyclohexyl)nicotinamide] | 6.93
22 | O=C(NC1CCc2ncccc2C1)c1ccc(-c2cccc(F)c2)nc1 (centres unmarked) [Example 127, 6-(3-Fluorophenyl)-N-(5,6,7,8-tetrahydroquinolin-6-yl)nicotinamide] | 5.03
23 | C[C@]1(C(=O)O)CC[C@@H](NC(=O)c2ccc(-c3cccc(F)c3)nc2)CC1 [Example 116, cis-4-({[6-(3-Fluorophenyl)pyridin-3-yl]carbonyl}amino)-1-methylcyclohexanecarboxylic acid] | 139
24 | CN(C)C(=O)[C@H]1CC[C@H](NC(=O)c2ccc(-c3cccc(F)c3)nc2)CC1 [Example 92, N-[trans-4-(Dimethylcarbamoyl)cyclohexyl]-6-(3-fluorophenyl)nicotinamide] | 2.71
25 | O=C(N[C@@H]1CC[C@H](C(=O)N2CCNCC2)C1)c1ccc(-c2cccc(F)c2)nc1 [Example 13, 6-(3-Fluorophenyl)-N-[(1R,3S)-3-(piperazin-1-ylcarbonyl)cyclopentyl]nicotinamide] | 16.5
26 | CC(C)(O)[C@H]1CC[C@H](NC(=O)c2ccc(-c3cccc(F)c3)nc2)CC1 [Example 97, 6-(3-Fluorophenyl)-N-[trans-4-(1-hydroxy-1-methylethyl)cyclohexyl]nicotinamide] | 2.9
27 | CCN(C)C(=O)[C@H]1CC[C@@H](NC(=O)c2ccc(-c3cccc(F)c3)nc2)CC1 [Example 77, N-{cis-4-[Ethyl(methyl)carbamoyl]cyclohexyl}-6-(3-fluorophenyl)nicotinamide] | 6.42
28 | O=C(NC1CCC(c2ncc[nH]2)CC1)c1ccc(-c2cccc(F)c2)nc1 (single isomer, unassigned) [Example 64, 6-(3-Fluorophenyl)-N-[4-(1H-imidazol-2-yl)cyclohexyl]nicotinamide] | 6.2
29 | Cc1nccn1[C@H]1CC[C@H](NC(=O)c2ccc(-c3cccc(F)c3)nc2)CC1 [Example 105, 6-(3-Fluorophenyl)-N-[trans-4-(2-methyl-1H-imidazol-1-yl)cyclohexyl]nicotinamide] | 14.7
